Assays:
NIH3T3 fibroblasts = test: Etoposide exposure of asynchronously growing NIH3T3 fibroblasts, cell killing and microscopic observation; assay type: cell-based, Murine; conditions: 50 μM etoposide
[1] = test system: 5 kb mRNA detected by 38T19 probe; test: Northern blot of etoposide-treated 3T3 cells, 38T19 probe; assay type: cell-based, Murine; conditions: 50 μM etoposide, 6 to 11 hours after treatment
Method: Induction of the 2.4 kb mRNA appeared to be maximal by 6 hours after etoposide exposure, representing a 7-fold increase. […] The levels of this mRNA were highest in untreated cells, and decreased at 6 to 11 hours after etoposide treatment, corresponding to a 4-fold reduction.

EI24 mRNA = test: Northern blot of E1A/ras transformed murine embryonic fibroblasts, EI24 probe; assay type: cell-based
Method: (§1) Northern blot showing induction of EI24 RNA by p53 in E1A/ras transformed murine embryonic fibroblasts (MEFs). 1.0 μg of poly-A^+ RNA was loaded per lane. p53^+/+ and p53^−/− MEFs were left untreated, or treated with 50 μM etoposide for 6 hours, as indicated (lanes 1-4). Alternately, p53^−/− MEFs expressing either empty vector (pBabe Puro), or a tamoxifen-regulatable p53 (p53ER™) were left untreated, or treated with 3.3 μM tamoxifen (TMX) for 16 hours (lanes 5-8). The northern blot was hybridized sequentially with probes for EI24, p21/WAF1 and tubulin.
E1A and ras transformed mouse embryo fibroblasts and expression of the p53-ER™ fusion protein. Stable cell lines of p53^+/+ and p53^−/− MEFs expressing the oncogenes E1A and T24 H-ras were generated as described previously (Lowe S. W., Jacks T., Housman D. E. and Ruley H. E. (1994) Proc. Natl. Acad. Sci. USA, 91, 2026-2030). The plasmid for expression of the p53ER™ fusion protein, pBabe Puro p53ER™ G525R, using the retroviral vector pBabe Puro (Morgenstern J. P. and Land H. (1990) Nucl. Acids Res., 18, 3587-3596), was received as a generous gift from Trevor Littlewood (Imperial Cancer Research Fund, London). In brief, this plasmid contains the ˜1.3 kb BamHI fragment of human p53 from pSV53her (Roemer K. and Friedmann T. (1993) Proc. Natl. Acad. Sci. USA, 90, 9252-9256) fused to the ligand-binding domain of the murine estrogen receptor carrying a point mutation at amino acid 525 that renders the receptor unable to bind estradiol but able to bind tamoxifen or 4-hydroxy tamoxifen (Danielian P., White R., Hoare S., Fawell S. and Parker M. (1993) Mol Endocrinol, 7, 232-240; Littlewood T. D., Hancock D. C., Danielian P. S., Parker M. G. and Evan G. I. (1995) NAR, 23, 1686-1690). For induction of wild-type p53 activity, p53ER™ transfected p53^−/− cells were treated with […] tamoxifen (Sigma). […]

p21/WAF1 mRNA = test: Northern blot of E1A/ras transformed murine embryonic fibroblasts, p21/WAF1 probe; assay type: cell-based
Method: as §1
E1A and ras transformed mouse embryo fibroblasts and expression of the p53-ER™ fusion protein. Stable cell lines of p53^+/+ and p53^−/− MEFs expressing the oncogenes E1A and T24 H-ras were generated as described previously (Lowe S. W., Jacks T., Housman D. E. and Ruley H. E. (1994) Proc. Natl. Acad. Sci. USA, 91, 2026-2030). The plasmid for expression of the p53ER™ fusion protein, pBabe Puro p53ER™ G525R, using the retroviral vector pBabe Puro (Morgenstern J. P. and Land H. (1990) Nucl. Acids Res., 18, 3587-3596), was received as a generous gift from Trevor Littlewood (Imperial Cancer Research Fund, London). […]

[2] = test system: 2.4 kb mRNA recognized by 11G10 (EI24); test: Northern blot of etoposide-treated 3T3 cells, 11G10 probe; conditions: 50 μM etoposide

SMILES | signs of apoptosis by microscopic observation (NIH3T3 fibroblasts; for at least 6 hours following exposure) | cell killing (NIH3T3 fibroblasts; within 24 hours, asynchronously growing NIH3T3 cells) | reduction of 5 kb mRNA [1] | induction of EI24 mRNA (EI24 mRNA; etoposide 50 μM, 6 hours, E1A/ras-transformed p53+/+ cells) | induction of EI24 mRNA (EI24 mRNA; etoposide 50 μM, 6 hours, E1A/ras-transformed p53−/− cells) | induction of WAF1 RNA (p21/WAF1 mRNA; etoposide, p53−/− MEFs, maximal level lower than in p53+/+ cells) | increase of 2.4 kb mRNA (EI24) ([2]; 3 hours post treatment) | increase of 2.4 kb mRNA (EI24), maximal induction ([2]; 6 hours after exposure) | induction of EI24 mRNA (EI24 mRNA; tamoxifen, p53−/− control cell line (pBabe Puro) with empty vector) | induction of WAF1 mRNA (p21/WAF1 mRNA; tamoxifen treatment, p53ER p53−/− cells)
COc1cc([C@@H]2c3cc4c(cc3[C@@H](O[C@@H]3O[C@@H]5CO[C@@H](C)O[C@H]5[C@H](O)[C@H]3O)[C@H]3COC(=O)[C@H]23)OCO4)cc(OC)c1O [etoposide, Etoposide] | no obvious signs of apoptosis | kill the majority of asynchronously growing cells | 4 fold | further induced | No induction of EI24 | WAF1 RNA was induced | 4 fold | 7 fold | – | –
CC/C(=C(\c1ccccc1)c1ccc(OCCN(C)C)cc1)c1ccccc1 [tamoxifen] | – | – | – | – | – | – | – | – | No EI24 induction | strongly induced

— patent publication US6586204B2, “Apoptosis gene EI24, compositions, and methods of use” (Apoptosis Technology, Inc., priority 1996, dated 2003)
